Source: patent publication US11793779B2, “Hica for use in prophylaxis and/or treatment of a disease or condition involving degradation of cartilage and/or disruption of cartilage homeostasis and/or integrity” (Salarusta Oy, priority 2020, dated 2023)

Tests used:
MMP-13 = MMP-13 (Homo sapiens, UniProt P45452); assay: MMP-13 catalytic activity assay (modified pro-urokinase UKcol, chromogenic substrate S-2444, A405); format: biochemical; settings: HICA 25 μg/ml, FIG. 2
Procedure: This example was carried out to test the inhibition of the catalytic activity of MMP-13. MMP-13 activity was measured as described previously (Hanemaaijer, Visser et al. 1998). In brief, MMP-13 was captured from biological fluids using MMP-13-specific monoclonal antibody-coated 96-well plates. The wells were washed three times with PBS-T (phosphate buffered saline solution containing 0.05% [v/v] Tween-20) and incubated with […] assay buffer (50 mM Tris-HCl, pH 7.6. 150 mM NaCl, 5 mM CaCl2, 1 μM ZnCl2 and 0.01% [v/v] Brij-35), to which 15 μl (50 μg/ml) modified pro-urokinase (UKcol) and 10 pl (6 mM stock) chromogenic substrate S-2444 was added. Color development was recorded by measurement of A405 using a Titertek Multiskan 8-channel photometer (Verheijen, Nieuwenbroek et al. 1997). For measurement of total activity (already active plus latent MMP-13) in biological fluid, the immobilized MMP-13 was incubated with assay buffer containing 0.5 mM APMA for 2 hr, after which UKcol and S-2444 were added and activity was recorded. (Hanemaaijer, Sier et al. 1999)
The protocol for this experiment: MMP-13 was activated with […] of APMA (p-aminophenylmercuric acetate, obtained from Sigma-Aldrich #A9563), after which MMP-13 was diluted and mixed with indicated inhibitors. Solution was let to incubate 30 minutes at 37° C. […]

[1] = Characteristics of the subjects after four weeks on HICA; format: in vivo, human; settings: Mean ± SD
Procedure: In order to assess the effects of HICA on type II collagen and hyaluronic acid in healthy adults in vivo a study was conducted, where fifteen healthy male athletes (age 21.3±2.8 yr) volunteered for the 4-week study with double-blind design (Table 1). They were randomized to two parallel groups. Subjects in Group 1 (n=8, age 22.8±4.6 yr, height 179±6 cm, weight 76.2±6.9 kg, fat % 14.1±3.7%) received 583.2 mg of sodium salt of HICA (corresponding 500 mg of HICA) thrice a day for 4 weeks, and those in Group 2 (n=7, age 21.3±3.0 yr, height 178±5 cm, weight 73.5±5.0 kg, fat % 11.1±3.0%) received placebo (650 mg of maltodextrin) thrice a day for the same period. The subjects and the controls received repacked substance of equal volume (1.5 ml) which they were advised to mix with liquid. The subjects and the controls kept physical training constant during the study period, and they kept training daily. Serum specimens were obtained at baseline and in the end of the treatment. Specimens were aliquoted and immediately frozen; serum was collected and frozen at −70° C.
The Analysis of Variance (ANOVA) was used to assess statistical differences between the treatment groups. Data were handled as changes between the measurements before and after the treatments. Further, paired t-test was used to compare values before and after treatments. Probabilities less than 0.05 were regarded as statistically significant. Statistical analyses were carried out using the software program Systat for Windows (Statistics, Version 9, Evanston, IL, USA, 1992). The results are presented as means±SEM.

[2] = biological target: T1, human Matrix metalloproteinase 13 (MMP-13) (Homo sapiens, UniProt P45452); assay: MMP-13 mediated break down of aggrecan (SDS-PAGE, silver stain); format: biochemical; settings: 10% racemic HICA, APMA-activated MMP-13, incubation 2 d, FIG. 1 line 11
T1 construct: purchased BioTeZ, Berlin-Buch, Berlin, Germany 30100802
Procedure: As positive inhibitor controls Ilomastat (Ilo, CC1010, Millipore) and chlorhexidine (CHX, Corsodyl®, [2 mg/ml] (GlaxoSmithKline, Brøndby, Denmark) were used and 50 mM Tris-HCl-buffer (TNC): pH 7.5; 0.2 M NaCl; 1.0 mM CaCl2) was used as neutral assay buffer.
MMP-13 was preincubated 1 hour at 37° C. with p-aminophenylmercuric acetate (APMA, A9563, Sigma-Aldrich) to optimally activate (pro)MMP-13. As substrate, Aggrecan was added and then ADAMTS-5 or activated MMP-13 as catalytic/proteolytic enzyme and TNC, as neutral control, and 10% HICA, CHX or Ilo as protease/MMP-inhibitors let incubated together from 1 hour (h) to 2 days (d). The enzyme reactions terminated by boiling with modified Laemmli buffer. The samples were analysed by 8% SDS-PAGE and after electrophoresis the defragmentation of Aggrecan was visualised using Silver Stain Pierce®.
Sample with concentrations in lines: • 1. 0.25 μl molecular weight standards. Bio-Rad • 2. 4.2 μl Aggrecan (0.5 μg/μl) • 3. 4 μl ADAMTS-5 (0.1 μg/μl) • 4. 4.2 μl Aggrecan+4 μl ADAMTS-5+6 μl TNC-buffer. inc: 2d • 5. 4.2 μl Aggrecan+4 μl ADAMTS-5+6 μl 10% HICA. inc: 2d • 6. 4.2 μl Aggrecan+4 μl ADAMTS-5+6 μl CHX (2 mg/ml). inc: 2d • 7. 1 μl MMP-13 (0.2 μg/μl)+3 μl 2 mM APMA+6 μl TNC • 8. 4.2 μl Aggrecan+1 μl MMP-13 (0.2 μg/μl)+3 μl 2 mM APMA+6 μl TNC. inc: 1h • 9. 4.2 μl Aggrecan+1 μl MMP-13 (0.2 μg/μl)+3 μl 2 mM APMA+6 μl TNC. inc: 2d • 10. […]

- decreased activity of MMP-13 (MMP-13; MMP-13 concentration 1.5 ng/ml): 72%
- decreased activity of MMP-13 (MMP-13; MMP-13 concentration 24 ng/ml): 73%
- Hematocrite after HICA ([1]; before 0.44 ± 0.02, p = n.s. vs placebo): 0.45 ± 0.02
- Body Fat procent after HICA ([1]; before 14.1 ± 3.7, p = n.s. vs placebo): 14.0 ± 2.5%
- Weight after HICA ([1]; before 76.2 ± 6.9, p = n.s. vs placebo): 76.5 ± 8.4 kg
- Hemoglobin after HICA ([1]; before 152 ± 7, p = n.s. vs placebo): 151 ± 5 g/L
- inhibition of break down of Aggrecan by MMP-13 [2]: inhibited the break down of Aggrecan
Structure (SMILES): CC(C)CC(O)C(=O)O (racemic) [HICA, 2-hydroxy-4-methylpentanoic acid]
